One series deals with B-Raf (Homo sapiens, UniProt P15056). As to the kind of experiment: B-Raf biochemical kinase inhibition (AlphaScreen, biotin-MEK1 substrate). The conditions noted are these: 100 μM ATP. In outline:
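Eight-point compound series (made from a 0.1 mM DMSO stock) tested against each Raf enzyme with biotin-MEK1 substrate and 100 μM final ATP.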

The next series concerns the target c-Raf-1 (Homo sapiens, UniProt P04049). As to the kind of experiment: c-Raf-1 biochemical kinase inhibition (AlphaScreen, biotin-MEK1 substrate). The conditions noted are these: 100 μM ATP. The method, then:
Compounds to be tested are diluted in dimethyl sulfoxide to a concentration of 0.1 mM. These are serially diluted 15 μL into 30 μL of dimethyl sulfoxide seven times in 96 well plates for a total of 8 dilution points, and for each dilution point 1 μL is added to a well of an assay plate. […] The reaction is started with addition of 10 μL of 200 μM ATP (i.e. final 100 μM ATP). […] The plates are incubated for 3 hours at room temperature and read on Envision reader (Perkin Elmer). […] The signal vs. compound concentration is used to determine the IC50.

The target of a further series is CYP3A4(BFC) (Homo sapiens, UniProt P08684). Description: CYP3A4(BFC) inhibition (fluorescent substrate). The class given is in vitro ADME. The conditions noted are these: read-out: Cyp IC50 3A4(BFC). In outline: (§1)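 Compound, from a 100 mM DMSO stock and diluted 1:1 over 10 points in co-factor mix, was incubated at 37° C with enzyme and a known substrate. Decrease in fluorescent product against concentration gave the IC50.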
Chain of CYP3A4(BFC) (P08684 whole entry): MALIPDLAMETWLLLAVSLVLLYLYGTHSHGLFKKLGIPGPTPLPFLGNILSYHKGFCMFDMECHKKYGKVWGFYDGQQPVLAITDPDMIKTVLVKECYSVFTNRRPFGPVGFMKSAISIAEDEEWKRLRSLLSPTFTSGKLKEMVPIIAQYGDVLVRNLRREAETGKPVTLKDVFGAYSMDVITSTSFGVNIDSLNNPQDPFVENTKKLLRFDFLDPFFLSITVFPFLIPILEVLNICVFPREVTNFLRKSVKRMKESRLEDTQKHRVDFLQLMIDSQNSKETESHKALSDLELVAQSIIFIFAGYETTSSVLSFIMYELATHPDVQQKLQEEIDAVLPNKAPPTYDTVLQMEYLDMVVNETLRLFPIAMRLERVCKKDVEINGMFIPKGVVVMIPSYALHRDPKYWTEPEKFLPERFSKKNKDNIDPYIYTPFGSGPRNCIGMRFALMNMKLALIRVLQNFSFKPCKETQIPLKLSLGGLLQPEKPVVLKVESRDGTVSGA

Another series has as its target CYP3A4(BQ) (Homo sapiens, UniProt P08684). Description: CYP3A4(BQ) inhibition (fluorescent substrate). The class given is in vitro ADME. Particulars: read-out: Cyp IC50 3A4(BQ). In outline:
as §1

Series [1] can be described thus: Relative solubility by turbidity in aqueous buffers of varying pH. Particulars: for turbidity threshold (L, M, H) 7.4: HEPES pH 7.4; for turbidity threshold (L, M, H) 4.5: SIF pH 4.5; for turbidity threshold (L, M, H) 6.8: SIF pH 6.8; for turbidity threshold (L, M, H) 1.4: buffer pH 1.4 (SGF). The class given is physicochemical. In outline:
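Turbidity endpoint: concentration where optical density at 490, 535 and 650 nm exceeds 0.01, three-wavelength average used. Buffers at pH 1.5, 4.5, 6.8 and 7.4; DMSO serial dilutions of 25 mM stock spiked 1 μL into 99 μL buffer. Low <31.3, moderate 31.3–250, high >250 μM.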

Bounds are passed on as bounds.

Chain of B-Raf (P15056 whole entry): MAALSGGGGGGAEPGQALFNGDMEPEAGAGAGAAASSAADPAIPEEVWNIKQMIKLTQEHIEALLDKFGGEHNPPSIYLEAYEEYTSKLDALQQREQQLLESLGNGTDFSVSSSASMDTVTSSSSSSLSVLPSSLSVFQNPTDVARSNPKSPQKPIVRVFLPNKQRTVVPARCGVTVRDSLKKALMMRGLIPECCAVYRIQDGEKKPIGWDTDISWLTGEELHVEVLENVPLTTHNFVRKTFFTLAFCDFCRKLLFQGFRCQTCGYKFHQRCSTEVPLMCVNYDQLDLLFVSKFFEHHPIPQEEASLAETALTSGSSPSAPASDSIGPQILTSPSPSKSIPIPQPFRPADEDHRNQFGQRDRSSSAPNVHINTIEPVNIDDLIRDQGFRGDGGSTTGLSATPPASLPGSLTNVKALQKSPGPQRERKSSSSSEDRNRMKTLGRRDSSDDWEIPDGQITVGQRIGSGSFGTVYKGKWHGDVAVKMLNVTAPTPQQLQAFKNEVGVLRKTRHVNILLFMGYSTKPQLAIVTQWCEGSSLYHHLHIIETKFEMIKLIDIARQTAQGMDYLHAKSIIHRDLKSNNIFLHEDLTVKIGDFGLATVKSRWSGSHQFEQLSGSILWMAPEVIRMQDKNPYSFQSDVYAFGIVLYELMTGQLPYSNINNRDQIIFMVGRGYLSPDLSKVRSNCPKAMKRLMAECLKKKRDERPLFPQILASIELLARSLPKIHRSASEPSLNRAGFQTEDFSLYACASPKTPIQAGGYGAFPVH
Chain of CYP3A4(BQ) (P08684 whole entry): as the sequence (P08684 whole entry) above
Chain of c-Raf-1 (P04049 whole entry): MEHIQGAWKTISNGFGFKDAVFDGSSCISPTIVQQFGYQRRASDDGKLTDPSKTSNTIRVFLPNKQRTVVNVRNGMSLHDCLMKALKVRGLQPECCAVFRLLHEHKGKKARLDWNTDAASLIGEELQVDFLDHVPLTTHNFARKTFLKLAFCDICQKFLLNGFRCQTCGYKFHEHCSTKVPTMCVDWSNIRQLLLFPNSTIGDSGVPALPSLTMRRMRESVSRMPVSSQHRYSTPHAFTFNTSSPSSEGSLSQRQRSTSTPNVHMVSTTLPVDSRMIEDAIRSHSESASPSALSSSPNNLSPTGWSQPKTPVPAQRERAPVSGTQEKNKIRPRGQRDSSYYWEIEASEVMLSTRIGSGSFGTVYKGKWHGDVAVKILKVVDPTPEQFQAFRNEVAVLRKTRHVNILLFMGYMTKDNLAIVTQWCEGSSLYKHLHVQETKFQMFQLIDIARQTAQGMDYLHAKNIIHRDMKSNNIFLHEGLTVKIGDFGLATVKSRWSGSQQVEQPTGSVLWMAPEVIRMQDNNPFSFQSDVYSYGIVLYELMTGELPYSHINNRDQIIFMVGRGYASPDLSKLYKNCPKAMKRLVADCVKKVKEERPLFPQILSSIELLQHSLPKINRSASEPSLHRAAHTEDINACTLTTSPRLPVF

In the case of `O=C(c1c(F)ccc(NS(=O)(=O)c2c(F)cccc2F)c1F)c1c[nH]c2ncc(Cl)cc12` [P-2003, N-[3-(5-Chloro-1H-pyrrolo[2,3-b]pyridine-3-carbonyl)-2,4-difluoro-phenyl]-2,6-difluoro-benzenesulfonamide], the half-inhibitory concentration (IC50) at B-Raf was under 0.1 µM. The concentration for half-maximal inhibition (IC50) against c-Raf-1 is under 0.01 µM. Further, at CYP3A4(BFC), the IC50 is over 10 µM. Moreover, the half-inhibitory concentration (IC50) at CYP3A4(BQ) is over 10 µM. Moreover, in series [1], the “turbidity threshold (L, M, H) 7.4” value is given as “H (high solubility if the threshold concentration is >250 μM)”; the “turbidity threshold (L, M, H) 4.5” value is reported as “M (moderate solubility if the threshold concentration is 31.3 μM to 250 μM)”; the “turbidity threshold (L, M, H) 6.8” value is “M (moderate solubility if the threshold concentration is 31.3 μM to 250 μM)”; the “turbidity threshold (L, M, H) 1.4” value is “M (moderate solubility if the threshold concentration is 31.3 μM to 250 μM)”.
For the compound `N#Cc1cnc2[nH]cc(C(=O)c3c(F)ccc(NS(=O)(=O)c4c(F)cccc4F)c3F)c2c1` [P-2029, N-[3-(5-Cyano-1H-pyrrolo[2,3-b]pyridine-3-carbonyl)-2,4-difluoro-phenyl]-2,6-difluoro-benzenesulfonamide], the IC50 at B-Raf is under 0.1 µM; against c-Raf-1, under 0.01 µM; at CYP3A4(BFC), over 10 µM; on CYP3A4(BQ), over 10 µM.
As for `COc1ccnc2[nH]cc(C(=O)c3c(F)ccc(NS(=O)(=O)c4c(F)cccc4F)c3F)c12` [P-2031, N-[2,4-Difluoro-3-(4-methoxy-1H-pyrrolo[2,3-b]pyridine-3-carbonyl)-phenyl]-2,6-difluoro-benzenesulfonamide], the half-inhibitory concentration (IC50) at B-Raf is under 1 µM; on c-Raf-1, under 0.1 µM; on CYP3A4(BFC) it was over 10 µM; on CYP3A4(BQ) it was over 10 µM.
As for `O=C(c1c(F)ccc(NS(=O)(=O)c2c(F)cccc2F)c1F)c1c[nH]c2nccc(Cl)c12` [P-2033, N-[3-(4-Chloro-1H-pyrrolo[2,3-b]pyridine-3-carbonyl)-2,4-difluoro-phenyl]-2,6-difluoro-benzenesulfonamide], the IC50 on B-Raf is under 0.1 µM; against c-Raf-1, under 0.01 µM; at CYP3A4(BFC), over 10 µM; at CYP3A4(BQ) it was over 10 µM.
For `N#Cc1cnc2[nH]cc(C(=O)c3cccc(NS(=O)(=O)c4c(F)cccc4F)c3F)c2c1` [P-2054, N-[3-(5-Cyano-1H-pyrrolo[2,3-b]pyridine-3-carbonyl)-2-fluoro-phenyl]-2,6-difluoro-benzenesulfonamide], the concentration for half-maximal inhibition (IC50) against B-Raf was under 0.1 µM; against c-Raf-1, under 0.1 µM; at CYP3A4(BFC) it was over 10 µM; at CYP3A4(BQ), over 10 µM.
With `N#Cc1cnc2[nH]cc(C(=O)c3c(F)ccc(NS(=O)(=O)c4cccnc4)c3F)c2c1` [P-2072, Pyridine-3-sulfonic acid [3-(5-cyano-1H-pyrrolo[2,3-b]pyridine-3-carbonyl)-2,4-difluoro-phenyl]-amide], the IC50 at B-Raf was under 0.01 µM; on c-Raf-1, under 0.01 µM; on CYP3A4(BFC), 5 to 10 µM; at CYP3A4(BQ), under 5 µM.
As to `COc1ccnc2[nH]cc(C(=O)c3c(F)ccc(NS(=O)(=O)c4cccnc4)c3F)c12` [P-2073, Pyridine-3-sulfonic acid [2,4-difluoro-3-(4-methoxy-1H-pyrrolo[2,3-b]pyridine-3-carbonyl)-phenyl]-amide], the half-inhibitory concentration (IC50) is under 0.1 µM on B-Raf, under 0.01 µM against c-Raf-1, 5 to 10 µM on CYP3A4(BFC) and under 5 µM on CYP3A4(BQ).
The matching figures for `CCCS(=O)(=O)Nc1ccc(F)c(C(=O)c2c[nH]c3ncc(-c4ccc(Cl)nc4)cc23)c1F` [P-2154, Propane-1-sulfonic acid {3-[5-(6-chloro-pyridin-3-yl)-1H-pyrrolo[2,3-b]pyridine-3-carbonyl]-2,4-difluoro-phenyl}-amide]: under 0.01 µM, under 0.01 µM, over 10 µM and over 10 µM.
Turning to `CCCS(=O)(=O)Nc1ccc(F)c(C(=O)c2c[nH]c3ncc(-c4ccc(S(=O)(=O)NC)cc4)cc23)c1F` [P-2167, 4-{3-[2,6-Difluoro-3-(propane-1-sulfonylamino)-benzoyl]-1H-pyrrolo[2,3-b]pyridin-5-yl}-N-methyl-benzenesulfonamide], the IC50 against B-Raf was under 0.01 µM; at c-Raf-1, under 0.01 µM; on CYP3A4(BFC) it was over 10 µM; on CYP3A4(BQ) it was 5 to 10 µM.
For `CCCS(=O)(=O)Nc1ccc(F)c(C(=O)c2c[nH]c3ncc(-c4ccc(S(=O)(=O)NC5CC5)cc4)cc23)c1F` [P-2168, N-Cyclopropyl-4-{3-[2,6-difluoro-3-(propane-1-sulfonylamino)-benzoyl]-1H-pyrrolo[2,3-b]pyridin-5-yl}-benzenesulfonamide], the IC50 on B-Raf is under 0.01 µM. The IC50 at c-Raf-1 is under 0.01 µM. Further, in series [1], the “turbidity threshold (L, M, H) 7.4” value is “L (low solubility if the threshold concentration is <31.3 04)”; the “turbidity threshold (L, M, H) 4.5” value was “L (low solubility if the threshold concentration is <31.3 04)”; the “turbidity threshold (L, M, H) 6.8” value was “L (low solubility if the threshold concentration is <31.3 04)”; the “turbidity threshold (L, M, H) 1.4” value was “L (low solubility if the threshold concentration is <31.3 04)”.
On B-Raf, `CCCS(=O)(=O)Nc1ccc(F)c(C(=O)c2c[nH]c3ncc(-c4cnc(N5CCOCC5)nc4)cc23)c1F` [P-2197, Propane-1-sulfonic acid {2,4-difluoro-3-[5-(2-morpholin-4-yl-pyrimidin-5-yl)-1H-pyrrolo[2,3-b]pyridine-3-carbonyl]-phenyl}-amide] came in with an IC50 of under 0.01 µM. The IC50 at CYP3A4(BFC) was over 10 µM. Moreover, the half-maximal inhibitory concentration (IC50) on CYP3A4(BQ) is over 10 µM. For the same compound, in series [1], the “turbidity threshold (L, M, H) 7.4” value is reported as “L (low solubility if the threshold concentration is <31.3 04)”; the “turbidity threshold (L, M, H) 4.5” value is listed as “L (low solubility if the threshold concentration is <31.3 04)”; the “turbidity threshold (L, M, H) 6.8” value is given as “L (low solubility if the threshold concentration is <31.3 04)”; the “turbidity threshold (L, M, H) 1.4” value is on record as “M (moderate solubility if the threshold concentration is 31.3 μM to 250 μM)”.
With `CCCS(=O)(=O)Nc1ccc(F)c(C(=O)c2c[nH]c3ncc(-c4cnc(OC)nc4OC)cc23)c1F` [P-2199, Propane-1-sulfonic acid {3-[5-(2,4-dimethoxy-pyrimidin-5-yl)-1H-pyrrolo[2,3-b]pyridine-3-carbonyl]-2,4-difluoro-phenyl}-amide], the IC50 on B-Raf is under 0.1 µM; against c-Raf-1, under 0.01 µM; at CYP3A4(BFC) it was over 10 µM; at CYP3A4(BQ) it was over 10 µM.
Take `CCCS(=O)(=O)Nc1ccc(F)c(C(=O)c2c[nH]c3ncc(-c4ccc(N)nc4)cc23)c1F` [P-2214, Propane-1-sulfonic acid {3-[5-(6-amino-pyridin-3-yl)-1H-pyrrolo[2,3-b]pyridine-3-carbonyl]-2,4-difluoro-phenyl}-amide]: the concentration for half-maximal inhibition (IC50) against B-Raf was under 0.01 µM; against c-Raf-1 it was under 0.01 µM; at CYP3A4(BFC) it was over 10 µM; on CYP3A4(BQ), over 10 µM.
For `CCCS(=O)(=O)Nc1ccc(F)c(C(=O)c2c[nH]c3ncc(-c4ccc(S(=O)(=O)CC)cc4)cc23)c1F` [P-2218, Propane-1-sulfonic acid {3-[5-(4-ethanesulfonyl-phenyl)-1H-pyrrolo[2,3-b]pyridine-3-carbonyl]-2,4-difluoro-phenyl}-amide], the IC50 against B-Raf was under 0.1 µM; at c-Raf-1, under 0.1 µM; at CYP3A4(BFC), over 10 µM; at CYP3A4(BQ), over 10 µM.
In turn, `CCCS(=O)(=O)Nc1ccc(F)c(C(=O)c2c[nH]c3ncc(-c4cnc(N5CCCC5)nc4)cc23)c1F` [P-2219, Propane-1-sulfonic acid {2,4-difluoro-3-[5-(2-pyrrolidin-1-yl-pyrimidin-5-yl)-1H-pyrrolo[2,3-b]pyridine-3-carbonyl]-phenyl}-amide] returned an IC50 at B-Raf of under 0.1 µM. Further, the IC50 on c-Raf-1 was under 0.1 µM. For the same compound, in series [1], the “turbidity threshold (L, M, H) 7.4” value is recorded as “L (low solubility if the threshold concentration is <31.3 04)”; the “turbidity threshold (L, M, H) 4.5” value is “L (low solubility if the threshold concentration is <31.3 04)”; the “turbidity threshold (L, M, H) 6.8” value is “L (low solubility if the threshold concentration is <31.3 04)”; the “turbidity threshold (L, M, H) 1.4” value is “M (moderate solubility if the threshold concentration is 31.3 μM to 250 μM)”.
For the compound `CCCS(=O)(=O)Nc1ccc(F)c(C(=O)c2c[nH]c3ncc(-c4cccc(S(C)(=O)=O)c4)cc23)c1F` [P-2228, Propane-1-sulfonic acid {2,4-difluoro-3-[5-(3-methanesulfonyl-phenyl)-1H-pyrrolo[2,3-b]pyridine-3-carbonyl]-phenyl}-amide], the 50% inhibitory concentration (IC50) against B-Raf is under 0.01 µM; on c-Raf-1 it was under 0.01 µM; on CYP3A4(BFC), over 10 µM; on CYP3A4(BQ), over 10 µM.

These data come from US8198273B2, “Compounds and methods for kinase modulation, and indications therefor” (Plexxikon Inc., priority 2009, dated 2012).
